The values that follow come from ChEMBL document CHEMBL1147421, “Diamine derivatives with antiparasitic activities” (Bioorg Med Chem Lett, 2004).

What is called EC50 is the midpoint of the concentration-response curve. A higher EC50 goes with lower potency in that assay.

Assay [1] deals with Plasmodium falciparum. Briefly: Antiparasitic activity against Plasmodium falciparum D6. It is filed as functional, organism-based.
Assay [2] in a line: Antiparasitic activity against Leishmania promastigotes (Leishmania donovani). The format is functional.
Assay [3] deals with Plasmodium falciparum. Briefly: Antiparasitic activity against chloroquine-resistant Plasmodium falciparum W2. The format is functional, organism-based.

The structures appear in SMILES notation. Values joined by “and” are separate entries in the source; they are usually repeats but may differ in a detail not shown here. Equal entries are not always repeated.

Turning to `CCCCN(CCCC)CCCN.O=C(O)C(F)(F)F`, the EC50 in assay [1] (Plasmodium falciparum) is 6.33 µM; in assay [2], 4.66 µM; in assay [3], “Not Active”.
`NCCCCN(Cc1ccc(OCCc2ccccc2)cc1)Cc1ccc(OCCc2ccccc2)cc1.O=C(O)C(F)(F)F`: the EC50 in assay [1] was 8.68 µM; in assay [1] (Plasmodium falciparum), 7.43 µM; in assay [2], 13 µM and 27 µM; in assay [3], “Not Active”.
With `COc1ccc(CN(CCCCN)Cc2ccc(OC)cc2)cc1.O=C(O)C(F)(F)F`, the EC50 result in assay [1] was “Not Active”; in assay [2], 10.6 µM; in assay [3] (Plasmodium falciparum) it was 6.78 µM.
The like results for `COc1ccc(CN(CCCN)Cc2ccc(OC)cc2OC)c(OC)c1.O=C(O)C(F)(F)F` were, in that order, “Not Active”, 20.5 µM and 9.42 µM.
Turning to `CCCCOc1ccc(CN(CCCN)Cc2ccc(OCCCC)cc2)cc1`, the EC50 in assay [1] is 4.1 µM; in assay [1] (Plasmodium falciparum) it was 4.37 µM; in assay [2] it was 1.22 µM and 1.27 µM; in assay [3], 6.44 µM; in assay [3] (Plasmodium falciparum), 6.64 µM.
With `Cc1ccc(COc2ccc(CN(CCCN)Cc3ccc(OCc4ccc(C)cc4)cc3)cc2)cc1`, the EC50 was 1.41 µM in assay [1]; 1.42 µM in assay [1] (Plasmodium falciparum); 1.2 µM and 1.07 µM in assay [2]; 4.6 µM in assay [3]; 3.59 µM in assay [3] (Plasmodium falciparum).
On to `COc1ccc(CN(CCCN)Cc2ccccc2)cc1.O=C(O)C(F)(F)F`, for which the EC50 entry was “Not Active” in assay [1], 4.52 µM in assay [2] and “Not Active” in assay [3].
As to `NCCCN(Cc1ccc(OCc2c(F)c(F)c(F)c(F)c2F)cc1)Cc1ccc(OCc2c(F)c(F)c(F)c(F)c2F)cc1`, the EC50 was 2.68 µM in assay [1]; 2.24 µM in assay [1] (Plasmodium falciparum); 3.81 µM and 1.95 µM in assay [2]; 3.29 µM in assay [3]; 3.16 µM in assay [3] (Plasmodium falciparum).
For the molecule `NCCCCN(Cc1ccc(Br)o1)Cc1ccc(Br)o1.O=C(O)C(F)(F)F`, the figures for the EC50 entry in assay [1], in assay [2] and in assay [3] were “Not Active”, 19.2 µM and “Not Active”, respectively.
Regarding `NCCCCN(Cc1ccc(OCc2ccccc2)c(OCc2ccccc2)c1)Cc1ccc(OCc2ccccc2)c(OCc2ccccc2)c1`, the EC50 came out at 3.47 µM in assay [1] (Plasmodium falciparum), 1.86 µM in assay [2] and 2.23 µM in assay [3] (Plasmodium falciparum).
Take `NCCCCN(Cc1ccc(OCc2c(F)c(F)c(F)c(F)c2F)cc1)Cc1ccc(OCc2c(F)c(F)c(F)c(F)c2F)cc1`: the EC50 is 0.68 µM in assay [1] (Plasmodium falciparum); 2.52 µM and 2.97 µM in assay [2]; 2.07 µM in assay [3]; 2.16 µM in assay [3] (Plasmodium falciparum).
As for `NCCCN(Cc1ccccc1)Cc1ccc(Cc2ccc(Br)o2)cc1.O=C(O)C(F)(F)F`, the EC50 result in assay [1] was “Not Active”; in assay [2], 20.6 µM; in assay [3] (Plasmodium falciparum) it was 5.72 µM.
With `NCCCN(Cc1ccc(OCc2ccc(Br)cc2)cc1)Cc1ccc(OCc2ccc(Br)cc2)cc1`, the EC50 in assay [1] is 1.23 µM; in assay [1] (Plasmodium falciparum) it was 1.14 µM; in assay [2] it was 0.91 µM and 0.88 µM; in assay [3] it was 2.25 µM; in assay [3] (Plasmodium falciparum) it was 2.44 µM.
`NCCCN(Cc1ccc(Br)o1)Cc1ccc(Br)o1.O=C(O)C(F)(F)F`: the EC50 entry in assay [1] is “Not Active”; in assay [2], 19.8 µM; in assay [3] it was “Not Active”.
As to `CC(C)c1ccc(CN(CCCN)Cc2ccc(C(C)C)cc2)cc1.O=C(O)C(F)(F)F`, the EC50 entry in assay [1] is “Not Active”; in assay [2], 2.65 µM; in assay [3] (Plasmodium falciparum), 9.5 µM.
As for `COc1ccc(CN(CCCCN)Cc2ccccc2)cc1.O=C(O)C(F)(F)F`, the values for the EC50 result in assay [1], in assay [2] and in assay [3] (Plasmodium falciparum) were “Not Active”, 1.45 µM and 2.23 µM, respectively.
Turning to `NCCCN(Cc1ccc(OCCCc2ccccc2)cc1)Cc1ccc(OCCCc2ccccc2)cc1`, the EC50 was 2.01 µM in assay [1]; 1.88 µM in assay [1] (Plasmodium falciparum); 0.94 µM and 1 µM in assay [2]; 3.44 µM in assay [3]; 5.34 µM in assay [3] (Plasmodium falciparum).
Regarding `CC1=C2[C@H]3OC(=O)[C@@H](C)[C@@H]3[C@@H](O)C[C@@]2(C)C=CC1=O`, the EC50 in assay [1] (Plasmodium falciparum) and in assay [3] (Plasmodium falciparum) was 0.02 µM throughout.
As to `CC(C)(C)c1ccc(COc2ccc(CN(CCCN)Cc3ccc(OCc4ccc(C(C)(C)C)cc4)cc3)cc2)cc1`, the EC50 in assay [1] is 2.02 µM; in assay [1] (Plasmodium falciparum), 2.52 µM; in assay [2] it was 2.13 µM and 1.37 µM; in assay [3] it was 4.04 µM; in assay [3] (Plasmodium falciparum) it was 3.85 µM.
Turning to `COc1cccc(CN(CCCN)Cc2cccc(OC)c2)c1.O=C(O)C(F)(F)F`, the EC50 result in assay [1] was “Not Active”; in assay [2], 12.6 µM; in assay [3], “Not Active”.
As for `COc1ccc(CN(CCCN)Cc2ccccc2)cc1OC.O=C(O)C(F)(F)F`, the EC50 entry was “Not Active” in assay [1], 3.97 µM in assay [2] and 5.6 µM in assay [3] (Plasmodium falciparum).
Consider `CCCCOc1ccc(CN(CCCCN)Cc2ccc(OCCCC)cc2)cc1`, for which the EC50 was 4.09 µM in assay [1] (Plasmodium falciparum); 2.47 µM and 3.92 µM in assay [2]; 2.9 µM in assay [3]; 4.18 µM in assay [3] (Plasmodium falciparum).
Take `COc1cc(CN(CCCN)Cc2cc(OC)cc(OC)c2)cc(OC)c1.O=C(O)C(F)(F)F`: the EC50 result in assay [1] is “Not Active”; in assay [2], 9.42 µM; in assay [3], “Not Active”.
On to `COc1cccc(CN(CCCCN)Cc2cccc(OC)c2)c1.O=C(O)C(F)(F)F`, for which the EC50 result in assay [1] is “Not Active”; in assay [2], 10.8 µM; in assay [3] (Plasmodium falciparum) it was 6.1 µM.
As to `NCCCCN(Cc1ccccc1)Cc1ccc(OCc2ccccc2)cc1`, the EC50 in assay [1] (Plasmodium falciparum) came to 5.73 µM; in assay [2], 0.37 µM; in assay [3] (Plasmodium falciparum), 7.78 µM.
With `NCCCN(Cc1ccccc1)Cc1ccc(OCc2ccccc2)cc1`, the EC50 in assay [1] (Plasmodium falciparum) was determined as 4.43 µM; in assay [2], 1.37 µM; in assay [3] (Plasmodium falciparum), 3.79 µM.
On the same counts, the results for `NCCCCN(Cc1ccc(OCc2ccccc2)cc1)Cc1ccc(OCc2ccccc2)cc1` are 3.2 µM, 1.85 µM and 4.88 µM.
Consider `CC(C)c1ccc(CN(CCCN)Cc2ccccc2)cc1`, for which the figures for the EC50 in assay [1] (Plasmodium falciparum), in assay [2] and in assay [3] (Plasmodium falciparum) were 7.31 µM, 1.58 µM and 2.19 µM, respectively.
With `CC(C)c1ccc(CN(CCCCN)Cc2ccccc2)cc1`, the values for the EC50 in assay [1] (Plasmodium falciparum), in assay [2] and in assay [3] (Plasmodium falciparum) were 9.66 µM, 1.88 µM and 10.1 µM, respectively.
Regarding `NCCCCN(Cc1ccc(OCc2ccc(Cl)c(Cl)c2)cc1)Cc1ccc(OCc2ccc(Cl)c(Cl)c2)cc1`, the EC50 was 1.16 µM in assay [1] (Plasmodium falciparum); 3.82 µM and 3.66 µM in assay [2]; 2.59 µM and 0.69 µM in assay [3].
With `NCCCN(Cc1ccc(OCc2ccccc2)c(OCc2ccccc2)c1)Cc1ccc(OCc2ccccc2)c(OCc2ccccc2)c1`, the results for the 50% effective concentration (EC50) in assay [1] (Plasmodium falciparum), in assay [2] and in assay [3] (Plasmodium falciparum) were 2.9 µM, 1.64 µM and 3.03 µM, respectively.
Turning to `NCCCN(Cc1ccc(Cl)cc1)Cc1ccc(Cl)cc1.O=C(O)C(F)(F)F`, the values for the EC50 result in assay [1], in assay [2] and in assay [3] (Plasmodium falciparum) were “Not Active”, 8.69 µM and 10.1 µM, respectively.
`NCCCCN(Cc1ccccc1)Cc1ccc(Br)o1.O=C(O)C(F)(F)F`: the EC50 entry was “Not Active” in assay [1], 21.1 µM in assay [2] and “Not Active” in assay [3].
On to `COc1ccc(CN(CCCN)Cc2ccc(OC)cc2)cc1.O=C(O)C(F)(F)F`, for which the EC50 entry in assay [1] is “Not Active”; in assay [2], 10 µM; in assay [3] (Plasmodium falciparum), 9.34 µM.
On to `NCCCN(Cc1ccc(OCCc2ccccc2)cc1)Cc1ccc(OCCc2ccccc2)cc1.O=C(O)C(F)(F)F`, for which the 50% effective concentration (EC50) was 6.94 µM in assay [1]; 4.25 µM in assay [1] (Plasmodium falciparum); 14.2 µM and 11.1 µM in assay [2]; “Not Active” in assay [3].
For `NCCCN(Cc1ccccc1)Cc1ccc(Cl)cc1.O=C(O)C(F)(F)F`, the EC50 entry in assay [1] is “Not Active”; in assay [2] it was 1.86 µM; in assay [3] (Plasmodium falciparum) it was 7.7 µM.
As to `NCCCCN(Cc1ccc(OCCCc2ccccc2)cc1)Cc1ccc(OCCCc2ccccc2)cc1`, the EC50 was 1.04 µM in assay [1]; 1.12 µM in assay [1] (Plasmodium falciparum); 2.46 µM and 2.96 µM in assay [2]; 2.53 µM in assay [3]; 3.07 µM in assay [3] (Plasmodium falciparum).
As for `NCCCN(Cc1ccc(OCc2ccccc2)cc1)Cc1ccc(OCc2ccccc2)cc1`, the EC50 in assay [1] (Plasmodium falciparum) stood at 4.99 µM; in assay [2] it was 1.12 µM; in assay [3] (Plasmodium falciparum), 6.03 µM.
In the case of `NCCCN(Cc1ccc(OCc2ccc(Cl)c(Cl)c2)cc1)Cc1ccc(OCc2ccc(Cl)c(Cl)c2)cc1`, the EC50 is 1.54 µM in assay [1]; 1.34 µM in assay [1] (Plasmodium falciparum); 0.97 µM and 2.57 µM in assay [2]; 4.11 µM in assay [3]; 3.2 µM in assay [3] (Plasmodium falciparum).
`CC(C)(C)c1ccc(COc2ccc(CN(CCCCN)Cc3ccc(OCc4ccc(C(C)(C)C)cc4)cc3)cc2)cc1`: the EC50 is 1.07 µM in assay [1] (Plasmodium falciparum); 8.92 µM and 3 µM in assay [2]; 6.42 µM and 2.09 µM in assay [3].
`NCCCN(Cc1ccc(-c2ccc(Br)cc2)o1)Cc1ccc(-c2ccc(Br)cc2)o1.O=C(O)C(F)(F)F`: the figures for the EC50 in assay [1] (Plasmodium falciparum), in assay [2] and in assay [3] were 5.62 µM, 8.51 µM and “Not Active”, respectively.
As to `NCCCCN(Cc1ccc(Cl)cc1)Cc1ccc(Cl)cc1.O=C(O)C(F)(F)F`, the results for the EC50 result in assay [1], in assay [2] and in assay [3] were “Not Active”, 3.77 µM and “Not Active”, respectively.
With `NCCCN(Cc1ccccc1)Cc1ccccc1.O=C(O)C(F)(F)F`, the EC50 entry in assay [1] was “Not Active”; in assay [2], 24.2 µM; in assay [3], “Not Active”.
`COc1cc(CN(CCCN)Cc2ccc(OCc3ccccc3)c(OC)c2)ccc1OCc1ccccc1`: the figures for the EC50 in assay [1] (Plasmodium falciparum), in assay [2] and in assay [3] (Plasmodium falciparum) were 2.97 µM, 0.67 µM and 2.81 µM, respectively.
Turning to `COc1cc(CN(CCCCN)Cc2ccc(OCc3ccccc3)c(OC)c2)ccc1OCc1ccccc1`, the results for the EC50 in assay [1] (Plasmodium falciparum), in assay [2] and in assay [3] (Plasmodium falciparum) were 1.07 µM, 1.83 µM and 1.68 µM, respectively.
In turn, `C[C@@H]1[C@H](O)[C@@H](C)/C=C/C=C/CC/C=C/C=C/C=C/C=C/[C@H](O[C@@H]2O[C@H](C)[C@@H](O)[C@H](N)[C@@H]2O)C[C@@H]2O[C@](O)(C[C@@H](O)C[C@@H](O)[C@H](O)CC[C@@H](O)C[C@@H](O)CC(=O)O[C@H]1C)C[C@H](O)[C@H]2C(=O)O` registered an EC50 in assay [2] of 0.01 µM.
`CCN(CC)CCCC(C)Nc1ccnc2cc(Cl)ccc12` (stereo not drawn) [CHLOROQUINE]: the EC50 in assay [1] (Plasmodium falciparum) came out at 0.014 µM; in assay [3] (Plasmodium falciparum), 0.31 µM.
In assay [2], `N=C(N)c1ccc(OCCCCCOc2ccc(C(=N)N)cc2)cc1` [PENTAMIDINE] showed an EC50 of 1.35 µM.
